Assay results from PMC6389962 (Nature Communications, 2019).

Legend:
normal mice (C57BL/6J) = test: Blood glucose study in normal fed mice; type: in vivo, mouse; set-up: key to In vivo activity (indicator): + active; +++: + + + more active
Summary of the method: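 Fed male C57BL/6J mice (8 weeks, 20–25 g, n = 3 per group) received a single i.v. dose of 5 µg per mouse (50 nmol kg^−1) in PBS at 10 am. Blood glucose measured before dosing and at 30 min, 1, 2, 4 and 6 h after.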

NEP 24.11 = NEP 24.11 (Homo sapiens, UniProt P08473); test: in vitro; conditions: pH 8
Chain of NEP 24.11 (P08473 whole entry): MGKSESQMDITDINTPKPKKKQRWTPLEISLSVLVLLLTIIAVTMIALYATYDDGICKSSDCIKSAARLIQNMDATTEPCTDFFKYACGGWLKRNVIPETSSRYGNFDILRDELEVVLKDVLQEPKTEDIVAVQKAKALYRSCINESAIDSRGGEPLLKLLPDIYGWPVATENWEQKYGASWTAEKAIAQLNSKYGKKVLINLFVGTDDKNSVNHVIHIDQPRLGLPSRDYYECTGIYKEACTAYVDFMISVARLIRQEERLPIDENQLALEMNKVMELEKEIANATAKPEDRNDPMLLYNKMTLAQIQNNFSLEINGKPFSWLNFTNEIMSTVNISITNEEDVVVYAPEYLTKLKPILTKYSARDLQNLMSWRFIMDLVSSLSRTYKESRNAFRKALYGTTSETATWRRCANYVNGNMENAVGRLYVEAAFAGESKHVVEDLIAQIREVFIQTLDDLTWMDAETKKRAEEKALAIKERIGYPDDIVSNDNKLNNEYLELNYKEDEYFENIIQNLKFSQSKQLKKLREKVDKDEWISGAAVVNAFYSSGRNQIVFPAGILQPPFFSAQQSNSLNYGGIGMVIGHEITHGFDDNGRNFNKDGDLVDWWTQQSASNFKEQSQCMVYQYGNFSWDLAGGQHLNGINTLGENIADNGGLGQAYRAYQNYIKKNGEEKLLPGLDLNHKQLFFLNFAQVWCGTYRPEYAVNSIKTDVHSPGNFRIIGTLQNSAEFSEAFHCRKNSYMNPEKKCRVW
Procedure: (§1) Stock solutions of the oligomers were prepared at a concentration of 400 µM in a solution of 50 mM HEPES buffer, 50 mM NaCl, 0.05% Tween-80, pH 8.0. Stock solution of NEP 24.11 was prepared at a concentration of 100 µg mL^−1 in water. Stability of oligomers to NEP 24.11 was assessed by conducting protease reaction in a 96-well plates at 20 °C. […] Each compound was also incubated in the absence of the enzyme (12 µL of HEPES buffer and 38 µL of oligomer). […] A portion of the quenched reaction solution was analysed by HPLC. The time course of peptide degradation was determined by integrating the area of each peak in a series of HPLC traces.

in vitro = conditions: isolated enzyme neprilysin, pH 8, % remaining analogue
Procedure: as §1

mouse GLP-1 receptor = target: T1, mouse GLP-1 receptor (Mus musculus, UniProt O35659); test: cell-based
T1 sequence (O35659 22-463): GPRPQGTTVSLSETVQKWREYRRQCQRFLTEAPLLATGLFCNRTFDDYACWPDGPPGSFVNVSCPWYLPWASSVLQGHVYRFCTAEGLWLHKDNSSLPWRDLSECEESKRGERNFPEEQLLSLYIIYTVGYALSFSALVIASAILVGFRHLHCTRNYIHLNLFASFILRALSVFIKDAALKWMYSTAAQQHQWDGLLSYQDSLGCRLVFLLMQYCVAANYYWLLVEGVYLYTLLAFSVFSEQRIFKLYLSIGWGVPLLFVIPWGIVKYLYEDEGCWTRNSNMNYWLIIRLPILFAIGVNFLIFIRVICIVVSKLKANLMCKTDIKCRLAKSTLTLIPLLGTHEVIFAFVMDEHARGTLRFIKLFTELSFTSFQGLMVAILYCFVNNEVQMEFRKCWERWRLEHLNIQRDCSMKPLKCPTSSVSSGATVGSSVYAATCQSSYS

[1] = test system: fasted normal mice (C57BL/6J); test: Intraperitoneal glucose tolerance test (IPGTT) in fasted normal mice; type: in vivo, mouse; conditions: for AUC: IPGTT 5 min (Fig 4a), blood glucose AUC 0-120 min
Procedure: In a second study, an IPGTT was performed 30 min after i.v. injections of 1, 14 and the vehicle (Fig. 4b). […] A further IPGTT study was done with a glucose challenge after 2 h of the dosing to investigate the prolonged activity of hybrids 14, 22 and 23 (Fig. 4c).
Fig. 4 IPGTT studies in mice. a–d Intraperitoneal glucose tolerance test (IPGTT) at different time after dosing in fasted normal mice (C57BL/6J, male, 20–25 g). Dosage: 200 μg kg^−1 (50 nmol kg^−1) i.v. Formulation: 20 μg mL^−1 in PBS 1×. IPGTT: glucose 2 g kg^−1 i.p. at T0. a IPGTT after 5 min (n = 4). b IPGTT after 30 min (n = 6). c IPGTT after 2 h (n = 6). d IPGTT after 4 h (n = 3). Area under the curve (AUC) of the corresponding IPGTT curve. Data are mean ± SEM. […] Source data are provided as a Source Data file
After the acclimation period (at least 5 days), mice (male C57BL/6J mice (Charles River laboratories) 6 weeks old, 20–25 g) were randomized into groups according to their body weight. The mice were fasted for 6 h prior being acutely treated via i.v. route (5 µg per mouse i.v. (200 μg kg^−1, 50 nmol kg^−1)) formulated at 20 µg mL^−1 in PBS 1×. The IPGTTs were performed (glucose 2 g kg^−1 i.p.) 5 min, 30 min, 2 h or 4 h after dosing and blood glucose was measured at different time points after the glucose challenge.

[2] = Pharmacokinetic evaluation in mice, i.v. (final study, Fig. 5); conditions: C57BL/6J mice, LC-MS/MS
Procedure: Data are mean ± SEM, n = 3. Source data are provided as a Source Data file
After different time points, mice were sacrificed and blood samples were collected. The plasma was separated by centrifugation and the samples were frozen at −80 °C before analysis. A volume of 400 µL of each sample of plasma was mixed with 1 ml of acetonitrile to precipitate the protein and extract the compound. The sample were then vortexed and centrifuged (15,000 × g, 5 min, 16 °C) to sediment the precipitated protein.

[3] = fasted C57BL/6J mice, 200 μg kg−1 (50 nmol kg−1) i.v., glucose 2 g kg−1 i.p., n = 6
[4] = male, C57BL/6J, mouse, in vivo, iv, 1 mg/kg, Concentration (plasma), animal 1
[5] = male, C57BL/6J, mouse, in vivo, iv, 1 mg/kg, Concentration (plasma), animal 2
[6] = male, C57BL/6J, mouse, in vivo, iv, 1 mg/kg, Concentration (plasma), animal 3

## CC[C@H](C)[C@H](NC(=O)[C@H](Cc1ccccc1)NC(=O)[C@H](CCC(=O)O)NC(=O)[C@H](CCCCN)NC(=O)[C@H](C)NC(=O)[C@H](C)NC(=O)[C@H](CCC(N)=O)NC(=O)CNC(=O)[C@H](CCC(=O)O)NC(=O)[C@H](CC(C)C)NC(=O)[C@H](Cc1ccc(O)cc1)NC(=O)[C@H](CO)NC(=O)[C@H](CO)NC(=O)[C@@H](NC(=O)[C@H](CC(=O)O)NC(=O)[C@H](CO)NC(=O)[C@@H](NC(=O)[C@H](Cc1ccccc1)NC(=O)[C@@H](NC(=O)CNC(=O)[C@H](CCC(=O)O)NC(=O)CNC(=O)[C@@H](N)Cc1c[nH]cn1)[C@@H](C)O)[C@@H](C)O)C(C)C)C(=O)N[C@@H](C)C(=O)N[C@@H](Cc1c[nH]c2ccccc12)C(=O)N[C@@H](CC(C)C)C(=O)N[C@H](C(=O)N[C@@H](CCCCN)C(=O)NCC(=O)N[C@@H](CCCNC(=N)N)C(=O)NCC(N)=O)C(C)C [compound 1, GLP-1-G^2 (GG2)]
Normal mice (C57BL/6J); mice, 50 nmol kg−1 i.v.
  In vivo activity (indicator): +
Normal mice (C57BL/6J); normal fed C57BL/6J mice, n = 3, 5 μg per mouse (50 nmol kg−1) i.v., monitored 6 h
  effect on blood glucose concentration: decreased of blood glucose concentration after 30 min
NEP 24.11; isolated enzyme neprilysin, 22 h
  % remaining analogue: 0.6%
NEP 24.11
  NEP 24.11 t1/2: 3.6 h
In vitro
  remaining at 1 h: 77.5%
  remaining at 2 h: 63.1%
  remaining at 4 h: 47.1%
  remaining at 6 h: 32.6%
Mouse GLP-1 receptor
  EC50: 0.24 nM
Mouse GLP-1 receptor; read-out: Top (best-fit value)
  Emax: 106%
[1]; mean of n = 4, 2018-03-08
  AUC: 21223 mg·min/dL
[1]; single animal, 1st of group
  AUC: 20535 mg·min/dL
[1]; single animal, 2nd of group
  AUC: 25208 mg·min/dL
[1]; single animal, 3rd of group
  AUC: 19110 mg·min/dL
[1]; single animal, 4th of group
  AUC: 20040 mg·min/dL
[1]; fasted C57BL/6J mice, 200 μg kg−1 (50 nmol kg−1) i.v., glucose 2 g kg−1 i.p., n = 4
  activity in IPGTT 5 min after dosing: both analogues were active
[1]; [3]
  activity in IPGTT 30 min after dosing: already inactive
  activity in IPGTT 2 h after dosing: IPGTT curve similar to the vehicle
[2]; time 3 min, animal 3
  Concentration (plasma): 3680 nM
[2]; time 15 min, animal 3
  Concentration (plasma): 60 nM
[2]; time 30 min, animal 2
  Concentration (plasma): 10 nM
[2]; time 30 min, animal 3
  Concentration (plasma): 0 nM
[2]; [4]
  level at time molar at 1 min: 7920 nM
  level at time molar at 5 min: 1780 nM
  level at time molar at 10 min: 360 nM
[2]; [5]
  level at time molar at 1 min: 8370 nM
  level at time molar at 5 min: 2610 nM
  level at time molar at 10 min: 430 nM
[2]; [6]
  level at time molar at 1 min: 10800 nM
  level at time molar at 5 min: 2540 nM
  level at time molar at 10 min: 380 nM
[2]; male, C57BL/6J, mouse, in vivo, iv, 1 mg/kg, Concentration (plasma), time 3 min, animal 1
  level at time molar at 0.05 h: 3740 nM
[2]; male, C57BL/6J, mouse, in vivo, iv, 1 mg/kg, Concentration (plasma), time 3 min, animal 2
  level at time molar at 0.05 h: 3500 nM
[2]; male, C57BL/6J, mouse, in vivo, iv, 1 mg/kg, Concentration (plasma), time 15 min, animal 1
  level at time molar at […]: 100 nM
[2]; male, C57BL/6J, mouse, in vivo, iv, 1 mg/kg, Concentration (plasma), time 15 min, animal 2
  level at time molar at […]: 60 nM
[2]; male, C57BL/6J, mouse, in vivo, iv, 1 mg/kg, Concentration (plasma), time 30 min, animal 1
  level at time molar at 0.5 h: 10 nM
